Read-outs that look alike come from different tables or passages of the source.
Experiments:
Lp-PLA2 in human plasma = biological target: T1, Lp-PLA2 in human plasma (Homo sapiens, UniProt Q13093); test: Lp-PLA2 human plasma assay (Thio-PAF assay); assay type: biochemical; details: pooled human plasma; read-out: pIC50 values in the thio-PAF assay (converted)
T1 construct: from tissue; host or cells: pooled human plasma
T1 sequence (Q13093 22-441): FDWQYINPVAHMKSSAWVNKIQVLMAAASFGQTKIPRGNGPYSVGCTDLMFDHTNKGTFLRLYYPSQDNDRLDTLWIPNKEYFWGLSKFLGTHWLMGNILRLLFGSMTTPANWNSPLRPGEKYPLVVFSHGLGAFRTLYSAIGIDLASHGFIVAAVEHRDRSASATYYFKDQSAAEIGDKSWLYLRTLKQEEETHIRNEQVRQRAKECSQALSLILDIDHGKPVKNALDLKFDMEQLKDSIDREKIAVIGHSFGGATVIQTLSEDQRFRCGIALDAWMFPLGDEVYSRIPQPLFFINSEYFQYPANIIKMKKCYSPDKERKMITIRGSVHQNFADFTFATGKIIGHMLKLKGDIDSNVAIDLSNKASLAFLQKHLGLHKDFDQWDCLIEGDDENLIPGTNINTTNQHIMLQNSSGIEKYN
Outline: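 Pooled human plasma preincubated 30 min with compound, then 2-thio-PAF substrate added with CPM and NEM in 50 mM HEPES pH 7.4, 150 mM NaCl, 1 mM CHAPS. Quenched with TFA after 2 min, incubated 40 min at room temperature, and read by fluorescence at ex 380/em 485 nm. Values given as pIC50.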

[1] = biological target: T2, recombinant human Lp-PLA2 (Homo sapiens, UniProt Q13093); test: Recombinant human Lp-PLA2 assay (rhLp-PLA2, PED6 assay); assay type: biochemical
T2 sequence (Q13093 22-441): T1 sequence (Q13093 22-441)
Outline: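 Enzyme (4 nM or 110 pM, as stated for the 5 μL addition) preincubated 30 min with compound in 50 mM HEPES pH 7.4, 150 mM NaCl, 1 mM CHAPS, then PED6 substrate (4 or 5 μM in the addition) added. Fluorescence (ex 480/em 540) read after 20 min, room temperature; pIC50 from curve fitting.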

[2] = read-out: pIC50 values in the recombinant human Lp-PLA2 assay (converted)
[3] = read-out: rhLp-PLA2 (PED6 assay) (pIC50) (converted)

Q: `CN1c2cc(OCc3ccc(Oc4ccc(F)cc4)c(C#N)c3)nc(=O)n2CCC1(C)C` [E118, 2-(4-fluorophenoxy)-5-(((1,2,2-trimethyl-6-oxo-2,3,4,6-tetrahydro-1H-pyrimido[1,6-a]pyrimidin-8-yl)oxy)methyl)benzonitrile] was tested. Which IC50 (Lp-PLA2 in human plasma) did it give?
A: The IC50 was no more than 100 nM.

Q: And the IC50 [1, 2]?
A: Its IC50 is no more than 1 nM.

Q: For `C[C@@H]1CCn2c(cc(OCc3cc(F)c(Oc4ccc(C(F)(F)F)nc4)c(F)c3)nc2=O)N1C` [E119, (R)-8-((3,5-difluoro-4-((6-(trifluoromethyl)pyridin-3-yl)oxy)benzyl)oxy)-1,2-dimethyl-3,4-dihydro-1H-pyrimido[1,6-a]pyrimidin-6(2H)-one], which IC50 (Lp-PLA2 in human plasma) is on record?
A: The IC50 was no more than 100 nM.

Q: What about the IC50 [1, 2] of the same molecule?
A: Its IC50 is no more than 1 nM.

Q: What does the source list for `C[C@@H]1CCn2c(cc(OCc3ccc(Oc4cccc(C(F)(F)F)c4)c(F)c3)nc2=O)N1C` [E120, (R)-8-((3-fluoro-4-(3-(trifluoromethyl)phenoxy)benzyl)oxy)-1,2-dimethyl-3,4-dihydro-1H-pyrimido[1,6-a]pyrimidin-6(2H)-one]?
A: IC50 (Lp-PLA2 in human plasma): ≤ 100 nM; IC50 [1, 2]: ≤ 1 nM

Q: For `C[C@@H]1CCn2c(cc(OCc3ccc(Oc4ccc(C(F)(F)F)cc4)c(F)c3)nc2=O)N1C` [E121, (R)-8-((3-fluoro-4-(4-(trifluoromethyl)phenoxy)benzyl)oxy)-1,2-dimethyl-3,4-dihydro-1H-pyrimido[1,6-a]pyrimidin-6(2H)-one], which IC50 (Lp-PLA2 in human plasma) is on record?
A: Its IC50 is no more than 100 nM.

Q: What about the IC50 [1, 2] of the same molecule?
A: The IC50 was no more than 1 nM.

Q: With `C[C@@H]1CCn2c(cc(OCc3cc(F)c(Oc4ccc(F)cc4)c(F)c3)nc2=O)N1C` [E122, (R)-8-((3,5-difluoro-4-(4-fluorophenoxy)benzyl)oxy)-1,2-dimethyl-3,4-dihydro-1H-pyrimido[1,6-a]pyrimidin-6(2H)-one] as the molecule, how does the IC50 (Lp-PLA2 in human plasma) read?
A: The IC50 was no more than 100 nM.

Q: What about the IC50 [1, 2] of the same molecule?
A: The IC50 was no more than 1 nM.

Q: Which results are given for `C[C@@H]1CCn2c(cc(OCc3ccc(Oc4cccc(C(F)(F)F)c4)c(C#N)c3)nc2=O)N1C` [E123, (R)-5-(((1,2-dimethyl-6-oxo-2,3,4,6-tetrahydro-1H-pyrimido[1,6-a]pyrimidin-8-yl)oxy)methyl)-2-(3-(trifluoromethyl)phenoxy)benzonitrile]?
A: IC50 (Lp-PLA2 in human plasma): ≤ 10 nM; IC50 [1, 2]: ≤ 1 nM

Q: With `C[C@@H]1CCn2c(cc(OCc3cc(F)c(Oc4ccc(Cl)cc4)c(F)c3)nc2=O)N1C` [E124, (R)-8-((4-(4-chlorophenoxy)-3,5-difluorobenzyl)oxy)-1,2-dim ethyl-3,4-dihydro-1H-pyrimido[1,6-a]pyrimidin-6(2H)-one] as the molecule, how does the IC50 (Lp-PLA2 in human plasma) read?
A: The IC50 was no more than 100 nM.

Q: And the IC50 [1, 2]?
A: Its IC50 is no more than 1 nM.

Q: What does the source list for `C[C@@H]1CCn2c(cc(OCc3ccc(Oc4ccc(F)cc4)c(C#N)c3)nc2=O)N1C` [E125, (R)-5-(((1,2-dimethyl-6-oxo-2,3,4,6-tetrahydro-1H-pyrimido[1,6-a]pyrimidin-8-yl)oxy)methyl)-2-(4-fluorophenoxy)benzonitrile]?
A: IC50 (Lp-PLA2 in human plasma): ≤ 100 nM; IC50 [1, 2]: ≤ 1 nM

Q: Which IC50 (Lp-PLA2 in human plasma) does the source give for `C[C@H]1CCn2c(cc(OCc3ccc(Oc4ccc(F)cc4)c(C#N)c3)nc2=O)N1C` [E126, (S)-5-(((1,2-dimethyl-6-oxo-2,3,4,6-tetrahydro-1H-pyrimido[1,6-a]pyrimidin-8-yl)oxy)methyl)-2-(4-fluorophenoxyl)benzonitrile] here?
A: Its IC50 is no more than 100 nM.

Q: And the IC50 [1, 2]?
A: The IC50 was no more than 1 nM.

Q: What does the source list for `CN1c2cc(OCc3cccc(C#N)c3)nc(=O)n2CCC1(C)C` [E133, 3-(((1,2,2-trimethyl-6-oxo-2,3,4,6-tetrahydro-1H-pyrimido[1,6-a]pyrimidin-8-yl)oxy)methyl)benzonitrile]?
A: IC50 (Lp-PLA2 in human plasma): ≤ 10 nM; IC50 [1, 2]: ≤ 1 nM

Q: Which IC50 (Lp-PLA2 in human plasma) does the source give for `CN1c2cc(OCc3ccc(F)cc3)nc(=O)n2CCC1(C)C` [E135, 8-((4-fluorobenzyl)oxy)-1,2,2-trimethyl-3,4-dihydro-1H-pyrimido[1,6-a]pyrimidin-6(2H)-one] here?
A: The IC50 was no more than 10 nM.

Q: What about the IC50 [1, 2] of the same molecule?
A: Its IC50 is no more than 1 nM.

Q: `CC(C)N1c2cc(OCc3cc(F)c(F)c(F)c3)nc(=O)n2CC[C@@H]1C` [E140, (S)-1-isopropyl-2-methyl-8-((3,4,5-trifluorobenzyl)oxy)-3,4-dihydro-1H-pyrimido[1,6-a]pyrimidin-6(2H)-one] was tested. Which IC50 (Lp-PLA2 in human plasma) did it give?
A: Its IC50 is no more than 100 nM.

Q: What about the IC50 [1, 2] of the same molecule?
A: The IC50 was no more than 1 nM.

Q: Which IC50 (Lp-PLA2 in human plasma) does the source give for `C[C@H]1CCn2c(cc(OCc3ccc(Oc4ccc(C(F)(F)F)nc4)c(F)c3)nc2=O)N1C` [E142, (S)-8-((3-fluoro-4-((6-(trifluoromethyl)pyridin-3-yl)oxy)benzyl)oxy)-1,2-dimethyl-3,4-dihydro-1H-pyrimido[1,6-a]pyrimidin-6(2H)-one] here?
A: The IC50 was no more than 10 nM.

Q: And the IC50 [1, 2]?
A: Its IC50 is no more than 1 nM.

Q: With `C[C@@H]1CCn2c(cc(OCc3ccc(Oc4ccc(Cl)c(C(F)(F)F)c4)c(F)c3)nc2=O)N1C` [E143] as the molecule, how does the IC50 (Lp-PLA2 in human plasma) read?
A: The IC50 was no more than 10 nM.

Q: What about the IC50 [1, 2] of the same molecule?
A: Its IC50 is no more than 1 nM.

Q: Which results are given for `C[C@@H]1CCn2c(cc(OCc3cc(F)c(Oc4ccnc(C(F)(F)F)c4)c(F)c3)nc2=O)N1C` [E144, (R)-8-((3,5-difluoro-4-((2-(trifluoromethyl)pyridin-4-yl)oxy)benzyl)oxy)-1,2-dimethyl-3,4-dihydro-1H-pyrimido[1,6-a]pyrimidin-6(2H)-one]?
A: IC50 (Lp-PLA2 in human plasma): ≤ 10 nM; IC50 [1, 2]: ≤ 1 nM; IC50 [1, 3]: 0.0251 nM

Q: `C[C@@H]1CCn2c(cc(OCc3ccc(Oc4ccc(C(F)(F)F)nc4)c(F)c3)nc2=O)N1C` [E145, (R)-8-((3-fluoro-4-((6-(trifluoromethyl)pyridin-3-yl)oxy)benzyl)oxy)-1,2-dimethyl-3,4-dihydro-1H-pyrimido[1,6-a]pyrimidin-6(2H)-one] was tested. Which IC50 (Lp-PLA2 in human plasma) did it give?
A: The IC50 was no more than 10 nM.

Q: What about the IC50 [1, 2] of the same molecule?
A: The IC50 was no more than 1 nM.

Q: For `C[C@H]1CCn2c(cc(OCc3cc(F)c(Oc4ccnc(C(F)(F)F)c4)c(F)c3)nc2=O)N1C` [E146, (S)-8-((3,5-difluoro-4-((2-(trifluoromethyl)pyridin-4-yl)oxy)benzyl)oxy)-1,2-dimethyl-3,4-dihydro-1H-pyrimido[1,6-a]pyrimidin-6(2H)-one], which IC50 (Lp-PLA2 in human plasma) is on record?
A: The IC50 was no more than 10 nM.

Q: What about the IC50 [1, 2] of the same molecule?
A: The IC50 was no more than 1 nM.

Q: And the IC50 [1, 3]?
A: Its IC50 is 0.0158 nM.

Q: What does the source list for `C[C@@H]1CCn2c(cc(OCc3ccc(Oc4ccnc(C(F)(F)F)c4)c(F)c3)nc2=O)N1C` [E147, (R)-8-((3-fluoro-4-((2-(trifluoromethyl)pyridin-4-yl)oxy)benzyl)oxy)-1,2-dimethyl-3,4-dihydro-1H-pyrimido[1,6-a]pyrimidin-6(2H)-one]?
A: IC50 (Lp-PLA2 in human plasma): ≤ 10 nM; IC50 [1, 2]: ≤ 1 nM

Q: Which results are given for `C[C@@H]1CCn2c(cc(OCc3cc(F)c(Oc4cncc(C(F)(F)F)c4)c(F)c3)nc2=O)N1C` [E148, (R)-8-((3,5-difluoro-4-((5-(trifluoromethyl)pyridin-3-yl)oxy)benzyl)oxy)-1,2-dimethyl-3,4-dihydro-1H-pyrimido[1,6-a]pyrimidin-6(2H)-one]?
A: IC50 (Lp-PLA2 in human plasma): ≤ 10 nM; IC50 [1, 2]: ≤ 1 nM

Q: Which IC50 (Lp-PLA2 in human plasma) does the source give for `C[C@@H]1CCn2c(cc(OCc3ccc(Oc4cncc(C(F)(F)F)c4)c(F)c3)nc2=O)N1C` [E149, (R)-8-((3-fluoro-4-((5-(trifluoromethyl)pyridin-3-yl)oxy)benzyl)oxy)-1,2-dimethyl-3,4-dihydro-1H-pyrimido[1,6-a]pyrimidin-6(2H)-one] here?
A: The IC50 was no more than 10 nM.

Q: And the IC50 [1, 2]?
A: The IC50 was no more than 1 nM.

Q: Which results are given for `C[C@H]1CCn2c(cc(OCc3cc(F)c(Oc4cncc(C(F)(F)F)c4)c(F)c3)nc2=O)N1C` [E150, (S)-8-((3,5-difluoro-4-((5-(trifluoromethyl)pyridin-3-yl)oxy)benzyl)oxy)-1,2-dimethyl-3,4-dihydro-1H-pyrimido[1,6-a]pyrimidin-6(2H)-one]?
A: IC50 (Lp-PLA2 in human plasma): ≤ 10 nM; IC50 [1, 2]: ≤ 1 nM

Q: How did the IC50 (Lp-PLA2 in human plasma) turn out when `C[C@H]1CCn2c(cc(OCc3ccc(Oc4ccnc(C(F)(F)F)c4)c(F)c3)nc2=O)N1C` [E151, (S)-8-((3-fluoro-4-((2-(trifluoromethyl)pyridin-4-yl)oxy)benzyl)oxy)-1,2-dimethyl-3,4-dihydro-1H-pyrimido[1,6-a]pyrimidin-6(2H)-one] was run?
A: The IC50 was no more than 10 nM.

Q: And the IC50 [1, 2]?
A: The IC50 was no more than 1 nM.

Q: Which IC50 (Lp-PLA2 in human plasma) does the source give for `CN1c2cc(OCc3cc(F)c(Oc4ccnc(C(F)(F)F)c4)c(F)c3)nc(=O)n2CCC1(C)C` [E153] here?
A: The IC50 was no more than 10 nM.

Q: What about the IC50 [1, 2] of the same molecule?
A: The IC50 was no more than 1 nM.

From US20150344485A1, “BICYCLIC PYRIMIDONE COMPOUNDS AS INHIBITORS OF LP-PLA2” (GLAXOSMITHKLINE INTELLECTUAL PROPERTY DEVELOPMENT LIMITED, priority 2013, published 2015)
